Assay results taken from patent publication US20120302614A1, “METHOD FOR IMPROVING CEREBRAL CIRCULATION OR TREATING A CEREBRAL BLOOD FLOW DISORDER” (OSAKA UNIVERSITY, priority 2007, published 2012).
“Also recorded” adds a separate entry of the source.

How the values were obtained:
[1] = test system: Aβ injection model (Aβ 1-40 administered intracerebroventricularly); experiment: Morris water maze test in Aβ injection model, Test Example 1; format: in vivo, ddY mouse; conditions: oral administration for four weeks in advance of Aβ 1-40
Description: The therapeutic effect of olmesartan medoxomil in Aβ injection model and the dose dependency thereof were examined according to the following experimental schedule. [Experimental Schedule]: Prior to the experiment, 8-week old male ddY mice were administered olmesartan medoxomil (0.5 mg/kg/day, 1 mg/kg/day, 3 mg/kg/day or 6 mg/kg/day) or distilled water orally for four weeks (day −28 to −1). Then, Aβ 1-40 was administered to the mice intracerebroventricularly (day 0). (Although Aβ 1-40 was administered into one of the lateral ventricles in WO 2006/059777, Aβ 1-40 was administered in Test Example 1 to both lateral ventricles with an interval of one day between two administrations. Except for this point, Aβ 1-40 administration was performed in the same manner as in WO 2006/059777.) From one week thereafter, a behavioral test to evaluate cognitive function (Morris water maze test; Morris R et al., J Neuroscience Methods 1984, 11, 47-60) was performed (day 7 to 12). As a negative control, mice which had received oral administration of distilled water for four weeks were administered Aβ 40-1 intracerebroventricularly. The administration of olmesartan medoxomil or distilled water was continued until the end of the behavioral test. Measurements were performed as described below. • Hidden platform test: A platform is placed below the water surface of a water pool 150 cm in diameter filled with white water-colored. Mice are released into the water, and the time it takes them to reach the platform is measured. This trial is performed three times a day and for five consecutive days. As they learn, mice become able to reach the platform more quickly day by day. • Visible platform test: Mice are released into the water under such conditions that they can see the platform. The time it takes them to reach the platform is measured. • Probe test: The platform is removed, and mice are released and allowed to swim freely. Those mice with good learning/memory swim in the quadrant where the platform was located searching for the platform. The time they spent in that quadrant is measured. • Annnulus crossing: The number of times mice crossed the platform in the probe test is counted.

[2] = test system: hippocampus (CA1/Schaffer collaterals) of Aβ40-injected mice; experiment: Long-term potentiation in hippocampal slices, Test Example 3; format: in vivo, mouse; conditions: Aβ40-injected mice with or without treatment
Description: (§1) • Electrophysiology: Long term potentiation was measured as previously reported (Niisato K, Fujikawa A, Komai S, Shintani T, Watanabe E, Sakaguchi G, Katsuura G, Manabe T, Noda M: Age-dependent enhancement of hippocampal long-term potentiation and impairment of spatial learning through the Rho-associated kinase pathway in protein tyrosine phosphatase receptor type Z-deficient mice. J Neurosci 2005; 25:1081-1088). Transverse hippocampal slices (400 μm thick) were prepared from 5- to 10-week-old mice or from 13- to 31-week-old mice and placed in an interface-type holding chamber for at least 1 hr. […] For the analysis of EPSPs, the inventors measured their early rising phase in order to avoid contamination by voltage-dependent components as much as possible. […] The data are expressed as mean±SEM. […] Cerebral blood flow (CBF) was continuously monitored at the site of perfusion with a laser-Doppler probe positioned stereotaxically on the cortical surface and connected to a computerized data acquisition system. CBF values were expressed as percent increase relative to the resting level. Zero values for CBF were obtained after the heart was stopped by an overdose of isoflurane at the end of the experiment. • Effect of topical application of Aβ40 on functional hyperemia: The cranial window was first perfused with Ringer's solution, and CBF responses to whisker stimulation were recorded. […]

[3] = test system: Aβ-injected mice; experiment: Cerebral blood flow response to whisker stimulation (functional hyperemia), Test Example 3; format: in vivo, mouse; conditions: Aβ-injected mice with or without treatment
Description: as §1

[4] = test system: Aβ-injected mice; experiment: Cerebrovascular autoregulation (CBF versus MAP), Test Example 3; format: in vivo, mouse; conditions: Aβ-injected mice with or without treatment
Description: as §1

## CCCc1nc(C(C)(C)O)c(C(=O)O)n1Cc1ccc(-c2ccccc2-c2nnn[nH]2)cc1 [olmesartan, 4-(1-hydroxy-1-methylethyl)-2-propyl-1-[4-[2-(tetrazol-5-yl)phenyl]phenyl]methylimidazole-5-carboxylic acid]
[1]
  cognitive impairment (spatial memory and learning) in Morris water maze test, overall: ameliorated
[2]
  long-term potentiation (LTP) in hippocampus, field potential slope after tetanic stimulation: recovery of LTP
[3]
  Aβ-induced impairment in neurovascular coupling (CBF response to whisker stimulation): improved; also recorded: recovery of neurovascular coupling
[4]
  cerebrovascular autoregulation impaired by Aβ (relation between CBF and MABP): recovered
